For the assay, the target named is L-aminoadipate-semialdehyde dehydrogenase-phosphopantetheinyl transferase (Homo sapiens) (UniProt Q9NRN7). Kind of assay: PubChem AID 378. Particulars: purified protein DSF, SYPRO orange Tm shift, at 10 µM, protein 2 µM, pH 5.5, stronger effect = higher value.
Setting [1] is: buffer 10 mM NaH2PO4, NaCl 150 mM, MgCl2 2000 µM.
[2] abbreviates: buffer 10 mM NaHPO4, with 150 mM NaCl, 2 mM MgCl2.

L-aminoadipate-semialdehyde dehydrogenase-phosphopantetheinyl transferase (Homo sapiens), sequence (Q9NRN7 whole entry, looked up): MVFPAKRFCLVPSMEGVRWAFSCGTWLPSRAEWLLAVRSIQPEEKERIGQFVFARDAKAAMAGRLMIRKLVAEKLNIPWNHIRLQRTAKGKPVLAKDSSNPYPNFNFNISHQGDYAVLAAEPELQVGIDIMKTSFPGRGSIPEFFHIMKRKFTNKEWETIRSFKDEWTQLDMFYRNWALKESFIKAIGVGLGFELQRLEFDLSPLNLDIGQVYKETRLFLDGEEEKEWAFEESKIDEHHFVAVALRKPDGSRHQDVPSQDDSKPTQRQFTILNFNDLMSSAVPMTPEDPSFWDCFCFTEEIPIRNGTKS

Take `CC(O)CC(=O)SCCNC(=O)CCNC(=O)C(O)C(C)(C)COP(=O)(O)OP(=O)(O)OCC1OC(n2cnc3c(N)ncnc32)C(O)C1OP(=O)(O)O` (centres undefined): under setting [1], the Tm shift was 3.1 Celsius.
For the compound `CC(C)(COP(=O)(O)OP(=O)(O)OCC1OC(n2cnc3c(N)ncnc32)C(O)C1OP(=O)(O)O)C(O)C(=O)NCCC(=O)NCCS` (centres undefined), the Tm shift under setting [1] is 2.9 Celsius.
`O=P(O)(O)C(O)(Cn1ccnc1)P(=O)(O)O`: under setting [2], the Tm shift was 5.2 Celsius.
Still for that read-out and setting: the same measure for `O=[P+](O)C(O)(Cc1cccnc1)P(=O)(O)O` (centres undefined): 4.4 Celsius.

Values taken from PubChem BioAssay AID378.
